34 molecules from patent publication USRE47141E1, “Methods of treating fibrosis, cancer and vascular injuries” (EWHA University—Industry Collaboration Foundation, priority 2010, dated 2018) can be followed below.

The target in this experiment is ALK5 (Homo sapiens (Human), UniProt P36897). The experiment can be described thus: Cell-free assay for inhibition of ALK5 kinase phosphorylation. The format is biochemical. The note with it: read-out: IC50 on ALK5 kinase phosphorylation.
ALK5, sequence (P36897 34-503): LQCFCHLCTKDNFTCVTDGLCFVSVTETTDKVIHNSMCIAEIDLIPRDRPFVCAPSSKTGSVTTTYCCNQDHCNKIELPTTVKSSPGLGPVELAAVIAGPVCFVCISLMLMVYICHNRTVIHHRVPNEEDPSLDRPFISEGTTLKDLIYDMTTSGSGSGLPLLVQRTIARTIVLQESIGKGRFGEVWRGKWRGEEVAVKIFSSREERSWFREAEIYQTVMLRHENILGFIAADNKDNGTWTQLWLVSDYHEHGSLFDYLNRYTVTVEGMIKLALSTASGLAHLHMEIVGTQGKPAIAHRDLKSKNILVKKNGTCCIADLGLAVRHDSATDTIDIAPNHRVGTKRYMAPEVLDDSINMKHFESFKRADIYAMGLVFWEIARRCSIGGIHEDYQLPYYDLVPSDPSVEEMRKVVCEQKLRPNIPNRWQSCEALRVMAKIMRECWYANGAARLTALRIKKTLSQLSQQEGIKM
Description: ALK5 protein was expressed in Sf9 insect cells as human recombinant GST-fusion protein using the baculovirus expression system. Expressed protein was purified by affinity chromatography using GSH-agarose (Sigma-Aldrich). Kinase assay was performed in 96-well FlashPlates™ from Perkin Elmer (Boston, Mass., USA) in a 50 μL reaction volume. The reaction cocktail was pipetted in four steps in the following order: 20 μL of assay buffer (standard buffer), 5 μL of ATP solution in H2O, 5 μL of each test compounds of formula (I) in 10% DMSO, 10 μL of GSK3 (14-27) (200 ng)/10 μL of ALK5 solution (1 ng) (premixed). The reaction cocktail contained 60 mM HEPES-NaOH, pH 7.5, 3 mM MgCl2, 3 mM MnCl2, 3 Na3VO4, 1.2 mM DTT, 50 μg/mL PEG20000, 1 μM [γ-^33P]-ATP (approximately 2.5×10^5 cpm per well), 200 ng/10 μL GSK3 (14-27), and 1 ng/10 μL ALK5. The reaction cocktail was incubated at 30° C. for 60 min. The reaction was stopped with 50 μL of 2% (v/v) H3PO4, and plates were aspirated and washed two times with 200 μL 0.9% (w/v) NaCl. Assay was performed with a BeckmanCoulter Biomek 2000 robotic system. Incorporation of ^33Pi (counting of “cpm”) was determined with a microplate scintillation counter (Microbeta, Wallac).
Usually IC50 stands for the concentration at which inhibition is half-maximal. As for `Cc1cccc(-c2[nH]c(Cc3cccc(C#N)c3)nc2-c2ccc3ncnn3c2)n1` [Example 145, 3-((4-([1,2,4]triazolo[1,5-a]pyridin-6-yl)-5-(6-methylpyridin-2-yl)-1H-imidazol-2-yl)methyl)benzonitrile], the IC50 worked out at 12.4 nM. The value for `CC(=O)Nc1cccc(NCc2nc(-c3ccc4ncnn4c3)c(-c3cccc(C)n3)[nH]2)c1` [Example 75, N-(3-((4-([1,2,4]triazolo[1,5-a]pyridin-6-yl)-5-(6-methylpyridin-2-yl)-1H-imidazol-2-yl)methylamino)phenyl)acetamide] was 15.4 nM.

On to `Cc1cccc(-c2[nH]c(CNc3ccc(F)cc3)nc2-c2ccc3ncnn3c2)n1` [Example 6, N-((4-([1,2,4]triazolo[1,5-a]pyridin-6-yl)-5-(6-methylpyridin-2-yl)-1H-imidazol-2-yl)methyl)-4-fluoroaniline], for which the IC50 worked out at 17.4 nM. On to `Cc1cccc(-c2[nH]c(CNc3cc(Cl)cc(Cl)c3)nc2-c2ccc3ncnn3c2)n1` [Example 17, N-((4-([1,2,4]triazolo[1,5-a]pyridin-6-yl)-5-(6-methylpyridin-2-yl)-1H-imidazol-2-yl)methyl)-3,5-dichloroaniline], for which the IC50 is 14.6 nM. On to `Cc1cccc(-c2[nH]c(COc3ccccc3)nc2-c2ccc3ncnn3c2)n1` [Example 148, 6-(5-(6-methylpyridin-2-yl)-2-(phenoxymethyl)-1H-imidazol-4-yl)-[1,2,4]triazolo[1,5-a]pyridine], for which the IC50 came out at 13.1 nM. The value for `Cc1cccc(-c2[nH]c(Cc3ccccc3F)nc2-c2ccc3ncnn3c2)n1` [Example 144, 6-(2-(2-fluorobenzyl)-5-(6-methylpyridin-2-yl)-1H-imidazol-4-yl)-[1,2,4]triazolo[1,5-a]pyridine] was 25.1 nM.

As to `Cc1cccc(-c2[nH]c(CNc3ccc(C(N)=O)cc3)nc2-c2ccc3ncnn3c2)n1` [Example 67, 4-((4-([1,2,4]triazolo[1,5-a]pyridin-6-yl)-5-(6-methylpyridin-2-yl)-1H-imidazol-2-yl)methylamino)benzamide], the IC50 was 54.6 nM. For the molecule `Cc1cccc(-c2[nH]c(CNc3ccc(CC#N)cc3)nc2-c2ccc3ncnn3c2)n1` [Example 69, 2-(4-((4-([1,2,4]triazolo[1,5-a]pyridin-6-yl)-5-(6-methylpyridin-2-yl)-1H-imidazol-2-yl)methylamino)phenyl)acetonitrile], the IC50 came to 24.5 nM. With `Cc1cccc(-c2[nH]c(CNc3ccc(Br)cc3)nc2-c2ccc3ncnn3c2)n1` [Example 22, N-((4-([1,2,4]triazolo[1,5-a]pyridin-6-yl)-5-(6-methylpyridin-2-yl)-1H-imidazol-2-yl)methyl)-4-bromoaniline], the IC50 worked out at 17.1 nM. Turning to `Cc1cccc(-c2[nH]c(CNc3cc(F)cc(F)c3)nc2-c2ccc3ncnn3c2)n1` [Example 9, N-((4-([1,2,4]triazolo[1,5-a]pyridin-6-yl)-5-(6-methylpyridin-2-yl)-1H-imidazol-2-yl)methyl)-3,5-difluoroaniline], the IC50 was 6.39 nM. `COCc1cccc(NCc2nc(-c3ccc4ncnn4c3)c(-c3cccc(C)n3)[nH]2)c1` [Example 49, N-((4-([1,2,4]triazolo[1,5-a]pyridin-6-yl)-5-(6-methylpyridin-2-yl)-1H-imidazol-2-yl)methyl)-3-(methoxymethyl)aniline]: the IC50 was determined as 15.3 nM.

On to `CCc1cccc(-c2[nH]c(CNc3cccc(C#N)c3)nc2-c2ccc3ncnn3c2)n1` [Example 138, 3-((4-([1,2,4]triazolo[1,5-a]pyridin-6-yl)-5-(6-ethylpyridin-2-yl)-1H-imidazol-2-yl)methylamino)benzonitrile], for which the IC50 was 9.4 nM. For `Cc1cccc(-c2[nH]c(CNc3ccc(F)c(F)c3)nc2-c2ccc3ncnn3c2)n1` [Example 8, N-((4-([1,2,4]triazolo[1,5-a]pyridin-6-yl)-5-(6-methylpyridin-2-yl)-1H-imidazol-2-yl)methyl)-3,4-difluoroaniline], the IC50 came to 9.84 nM. As for `COc1ccc(NCc2nc(-c3ccc4ncnn4c3)c(-c3cccc(C)n3)[nH]2)cc1OC` [Example 46, N-((4-([1,2,4]triazolo[1,5-a]pyridin-6-yl)-5-(6-methylpyridin-2-yl)-1H-imidazol-2-yl)methyl)-3,4-dimethoxyaniline], the figure is 44.2 nM. The value for `Cc1cccc(NCc2nc(-c3ccc4ncnn4c3)c(-c3cccc(C)n3)[nH]2)c1` [Example 24, N-((4-([1,2,4]triazolo[1,5-a]pyridin-6-yl)-5-(6-methylpyridin-2-yl)-1H-imidazol-2-yl)methyl)-3-methylaniline] was 9.07 nM; that for `Cc1cccc(-c2[nH]c(CNc3ccc(Cl)c(Cl)c3)nc2-c2ccc3ncnn3c2)n1` [Example 16, N-((4-([1,2,4]triazolo[1,5-a]pyridin-6-yl)-5-(6-methylpyridin-2-yl)-1H-imidazol-2-yl)methyl)-3,4-dichloroaniline] was 7.54 nM. The value for `Cc1cccc(-c2[nH]c(CNc3cccc(C(N)=O)c3)nc2-c2ccc3ncnn3c2)n1` [Example 66, 3-((4-([1,2,4]triazolo[1,5-a]pyridin-6-yl)-5-(6-methylpyridin-2-yl)-1H-imidazol-2-yl)methylamino)benzamide] was 9.14 nM; that for `COC(=O)c1ccc(NCc2nc(-c3ccc4ncnn4c3)c(-c3cccc(C)n3)[nH]2)cc1` [Example 73, Methyl 4-((4-([1,2,4]triazolo[1,5-a]pyridin-6-yl)-5-(6-methylpyridin-2-yl)-1H-imidazol-2-yl)methylamino)benzoate] was 78 nM; that for `Cc1cccc(-c2[nH]c(CNc3ccccc3Br)nc2-c2ccc3ncnn3c2)n1` [Example 18, N-((4-([1,2,4]triazolo[1,5-a]pyridin-6-yl)-5-(6-methylpyridin-2-yl)-1H-imidazol-2-yl)methyl)-2-bromoaniline] was 6.54 nM.

In the case of `Cc1cccc(-c2[nH]c(CNc3ccc(NS(C)(=O)=O)cc3)nc2-c2ccc3ncnn3c2)n1` [Example 79, N-(4-((4-([1,2,4]triazolo[1,5-c]pyridin-6-yl)-5-(6-methylpyridin-2-yl)-1H-imidazol-2-yl)methylamino)phenyl)methanesulfonamide], the IC50 came out at 46.6 nM.

Consider `Cc1cccc(-c2[nH]c(CN(C)c3cccc(C#N)c3)nc2-c2ccc3ncnn3c2)n1` [Example 141], for which the IC50 is 118 nM.

Take `COCc1ccccc1NCc1nc(-c2ccc3ncnn3c2)c(-c2cccc(C)n2)[nH]1` [Example 48, N-((4-([1,2,4]triazolo[1,5-a]pyridin-6-yl)-5-(6-methylpyridin-2-yl)-1H-imidazol-2-yl)methyl)-2-(methoxymethyl)aniline]: the IC50 is 24.1 nM. For the molecule `Cc1cccc(-c2[nH]c(COc3cccc(C#N)c3)nc2-c2ccc3ncnn3c2)n1` [Example 150, 3-((4-([1,2,4]triazolo[1,5-a]pyridin-6-yl)-5-(6-methylpyridin-2-yl)-1H-imidazol-2-yl)methoxy)benzonitrile], the IC50 turned out to be 23.9 nM.

In the case of `Cc1cccc(-c2[nH]c(Cc3ccccc3)nc2-c2ccc3ncnn3c2)n1` [Example 143, 6-(2-benzyl-5-(6-methylpyridin-2-yl)-1H-imidazol-4-yl)-[1,2,4]triazolo[1,5-a]pyridine], the IC50 came out at 19.8 nM. As for `COc1ccccc1NCc1nc(-c2ccc3ncnn3c2)c(-c2cccc(C)n2)[nH]1` [Example 42, N-((4-([1,2,4]triazolo[1,5-a]pyridin-6-yl)-5-(6-methylpyridin-2-yl)-1H-imidazol-2-yl)methyl)-2-methoxyaniline], the figure is 14.4 nM; as for `C=Cc1ccccc1NCc1nc(-c2ccc3ncnn3c2)c(-c2cccc(C)n2)[nH]1` [Example 36, N-((4-([1,2,4]triazolo[1,5-a]pyridin-6-yl)-5-(6-methylpyridin-2-yl)-1H-imidazol-2-yl)methyl)-2-vinylaniline], 14.2 nM. The value for `CCc1cccc(NCc2nc(-c3ccc4ncnn4c3)c(-c3cccc(C)n3)[nH]2)c1` [Example 31, N-((4-([1,2,4]triazolo[1,5-a]pyridin-6-yl)-5-(6-methylpyridin-2-yl)-1H-imidazol-2-yl)methyl)-3-ethylaniline] was 8.01 nM.

Regarding `COc1cc(NCc2nc(-c3ccc4ncnn4c3)c(-c3cccc(C)n3)[nH]2)cc(OC)c1` [Example 47, N-((4-([1,2,4]triazolo[1,5-a]pyridin-6-yl)-5-(6-methylpyridin-2-yl)-1H-imidazol-2-yl)methyl)-3,5-dimethoxyaniline], the IC50 came out at 14.4 nM. The value for `Cc1cccc(-c2[nH]c(CNc3ccccc3)nc2-c2ccc3ncnn3c2)n1` [Example 1, N-((4-([1,2,4]triazolo[1,5-a]pyridin-6-yl)-5-(6-methylpyridin-2-yl)-1H-imidazol-2-yl)methyl)aniline] was 13.1 nM; that for `Cc1cccc(-c2[nH]c(CN(C)c3ccccc3F)nc2-c2ccc3ncnn3c2)n1` [Example 140, N-((4-([1,2,4]triazolo[1,5-a]pyridin-6-yl)-5-(6-methylpyridin-2-yl)-1H-imidazol-2-yl)methyl)-2-fluoro-N-methylaniline] was 49.8 nM; that for `COc1cccc(NCc2nc(-c3ccc4ncnn4c3)c(-c3cccc(C)n3)[nH]2)c1` [Example 43, N-((4-([1,2,4]triazolo[1,5-a]pyridin-6-yl)-5-(6-methylpyridin-2-yl)-1H-imidazol-2-yl)methyl)-3-methoxyaniline] was 14.3 nM. For `CC(=O)Nc1ccccc1NCc1nc(-c2ccc3ncnn3c2)c(-c2cccc(C)n2)[nH]1` [Example 74, N-(2-((4-([1,2,4]triazolo[1,5-a]pyridin-6-yl)-5-(6-methylpyridin-2-yl)-1H-imidazol-2-yl)methylamino)phenyl)acetamide], the IC50 came out at 39.5 nM. For the molecule `CC(=O)Nc1ccc(NCc2nc(-c3ccc4ncnn4c3)c(-c3cccc(C)n3)[nH]2)cc1` [Example 76, N-(4-((4-([1,2,4]triazolo[1,5-a]pyridin-6-yl)-5-(6-methylpyridin-2-yl)-1H-imidazol-2-yl)methylamino)phenyl)acetamide], the IC50 is 39 nM. Consider `COc1ccc(NCc2nc(-c3ccc4ncnn4c3)c(-c3cccc(C)n3)[nH]2)cc1` [Example 44, N-((4-([1,2,4]triazolo[1,5-a]pyridin-6-yl)-5-(6-methylpyridin-2-yl)-1H-imidazol-2-yl)methyl)-4-methoxyaniline], for which the IC50 came to 48.1 nM.
